Reference: patent US12344610B2, “APOL1 inhibitors and methods of use” (Maze Therapeutics, Inc., priority 2022, dated 2025)
Where two headings read alike, the source gives them in different places.

Key:
Format in all cases: cell-based
[1] = tested on: HEK293 clonal cell line overexpressing APOL1 G1; experiment: APOL1 G1 HEK293 cell rescue assay (Example B3); settings: geometric mean of at least 2 runs, † = single run, ¥ = concentration at 50% rescue estimated (no sigmoidal curve)
Outline: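 Rescue of cell death caused by APOL1 G1 overexpression was measured in a clonal HEK293 line. Compounds were tested in duplicate on one plate, and EC50s were geometric means across at least two runs on different days. Some values are estimated 50%-rescue concentrations where curve fitting failed.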

[2] = tested on: Trypanosoma brucei Lister 427 VSG221 with APOL1 G0 recombinant protein; experiment: APOL1 G0 trypanosome cell rescue assay (Example B5); settings: geometric mean of at least 2 assay runs, † = single assay run
Outline: (§1)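 Recombinant APOL1 protein, dispensed from a 2 μg/mL stock, and 250 T. brucei per well were co-incubated with test compound (0.4% DMSO) for 20 h. Viability: CellTiter-Glo luminescence.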

[3] = tested on: Trypanosoma brucei Lister 427 VSG221 with APOL1 G1 recombinant protein; experiment: APOL1 G1 trypanosome cell rescue assay (Example B5); settings: geometric mean of at least 2 assay runs, † = single assay run
Outline: as §1

[4] = tested on: Trypanosoma brucei Lister 427 VSG221 with APOL1 G2 recombinant protein; experiment: APOL1 G2 trypanosome cell rescue assay (Example B5); settings: geometric mean of at least 2 assay runs, † = single assay run
Outline: as §1

[5] = Homo sapiens, HEK293, HEK293 clonal line overexpressing APOL1 G1
[6] = Trypanosoma brucei, 20 h, read-out: APOL1 G0 Trypanosome Rescue EC50, Trypanosoma brucei Lister 427 VSG221 with APOL1 G0 recombinant protein, 20 hours, CellTiter-Glo
[7] = Trypanosoma brucei, 20 h, read-out: APOL1 G1 Trypanosome Rescue EC50, Trypanosoma brucei Lister 427 VSG221 with APOL1 G1 recombinant protein, 20 hours, CellTiter-Glo
[8] = Trypanosoma brucei, 20 h, read-out: APOL1 G2 Trypanosome Rescue EC50, Trypanosoma brucei Lister 427 VSG221 with APOL1 G2 recombinant protein, 20 hours, CellTiter-Glo
[9] = HEK293 clonal line overexpressing APOL1 G1
[10] = read-out: APOL1 G0 Trypanosome Rescue EC50, Trypanosoma brucei Lister 427 VSG221 with APOL1 G0 recombinant protein, 20 hours, CellTiter-Glo
[11] = read-out: APOL1 G1 Trypanosome Rescue EC50, Trypanosoma brucei Lister 427 VSG221 with APOL1 G1 recombinant protein, 20 hours, CellTiter-Glo
[12] = read-out: APOL1 G2 Trypanosome Rescue EC50, Trypanosoma brucei Lister 427 VSG221 with APOL1 G2 recombinant protein, 20 hours, CellTiter-Glo

Structure (SMILES) | EC50 [1, 5] | EC50 [2, 6] | EC50 [3, 7] | EC50 [4, 8] | EC50 [1, 9] | EC50 [2, 10] | EC50 [3, 11] | EC50 [4, 12]
CN=S(C)(=O)c1ccc(OCCN2CCC3(CC2)C(=O)Nc2ccc(Cl)cc23)cc1 (single isomer, unassigned) [Compound 148, (S) or (R)-5-chloro-1′-(2-{4-[methyl(methylimino)oxo-λ^6-sulfanyl]phenoxy}ethyl)-1,2-dihydrospiro[indole-3,4′-piperidin]-2-one] | 282 nM | 140 nM | 201 nM | 61.8 nM |  |  |  | 
O=C1CCC2c3ccc(OCCN4CCC5(CC4)C(=O)Nc4ccc(Cl)cc45)cc3CCN12 (single isomer, unassigned) [Compound 122, (S) or (R)-5-chloro-1′-[2-({3-oxo-1H,2H,3H,5H,6H,10bH-pyrrolo[2,1-a]isoquinolin-8-yl}oxy)ethyl]-1,2-dihydrospiro[indole-3,4′-piperidin]-2-one] | 188 nM | 252 nM | 337 nM | 108 nM |  |  |  | 
O=C1Nc2ccc(Cl)cc2C12CCN(CCOc1ccc(C3CCCS3(=O)=O)cc1)CC2 (single isomer, unassigned) [Compound 177, (R) or (S)-2-[4-(2-{5-chloro-2-oxo-1,2-dihydrospiro[indole-3,4′-piperidin]-1′-yl}ethoxy)phenyl]-1λ^6-thiolane-1,1-dione] |  |  |  |  | 132 nM | 260 nM | 314 nM | 84.4 nM
CS(=O)(=O)c1ccc(OCCN2CCC3(CC2)C(=O)Nc2ccc(C#N)cc23)cc1Cl [Compound 156, 1′-[2-(3-chloro-4-methanesulfonylphenoxy)ethyl]-2-oxo-1,2-dihydrospiro[indole-3,4′-piperidine]-5-carbonitrile] | 153 nM | 96.6 nM | 154 nM | 44.8 nM |  |  |  | 
N#Cc1ccc2c(c1)C1(CCN(CCOc3ccc4c(c3)CCNS4(=O)=O)CC1)C(=O)N2 [Compound 168, 1′-{2-[(1,1-dioxo-3,4-dihydro-2H-1λ^6,2-benzothiazin-6-yl)oxy]ethyl}-2-oxo-1,2-dihydrospiro[indole-3,4′-piperidine]-5-carbonitrile] | > 7840 nM | 496 nM | 638 nM | 191 nM |  |  |  | 
N#Cc1ccc2c(c1)C1(CCN(CCOc3ccc4c(c3)CCC(=O)N4CC(F)F)CC1)C(=O)N2 [Compound 105, 1′-(2-{[1-(2,2-difluoroethyl)-2-oxo-1,2,3,4-tetrahydroquinolin-6-yl]oxy}ethyl)-2-oxo-1,2-dihydrospiro[indole-3,4′-piperidine]-5-carbonitrile] | 175 nM | 217 nM | 274 nM | 75.2 nM |  |  |  | 
CS(=O)(=O)C1(c2c(F)cc(OCCN3CCC4(CC3)C(=O)Nc3ccc(Cl)cc34)cc2F)COC1 [Compound 136, 5-chloro-1′-{2-[3,5-difluoro-4-(3-methanesulfonyloxetan-3-yl)phenoxy]ethyl}-1,2-dihydrospiro[indole-3,4′-piperidin]-2-one] | 49.4 nM | 31.5 nM | 37.1 nM | 14.3 nM |  |  |  | 
CN(c1c(F)cc(OCCN2CCC3(CC2)C(=O)Nc2ccc(C#N)cc23)cc1F)S(C)(=O)=O [Compound 128, N-[4-(2-{5-cyano-2-oxo-1,2-dihydrospiro[indole-3,4′-piperidin]-1′-yl}ethoxy)-2,6-difluorophenyl]-N-methylmethanesulfonamide] | 158 nM | 269 nM | 383 nM | 133 nM |  |  |  | 
N#Cc1ccc2c(c1)C1(CCN(CCOc3ccc4c(c3)CCN3C(=O)NCC43)CC1)C(=O)N2 (single isomer, unassigned) [Compound 120, (R) or (S)-2-oxo-1′-[2-({3-oxo-1H,2H,3H,5H,6H,10bH-imidazo[4,3-a]isoquinolin-8-yl}oxy)ethyl]-1,2-dihydrospiro[indole-3,4′-piperidine]-5-carbonitrile] |  | 807 nM | 1250 nM | 346 nM | > 5230 nM |  |  | 
O=C1Nc2ccc(Cl)cc2C12CCN(CCOc1ccc(C3CCCS3(=O)=O)cc1)CC2 (single isomer, unassigned) [Compound 176, (S) or (R)-2-[4-(2-{5-chloro-2-oxo-1,2-dihydrospiro[indole-3,4′-piperidin]-1′-yl}ethoxy)phenyl]-1λ^6-thiolane-1,1-dione] | 157 nM |  | 177 nM | 44.6 nM |  | 120 nM |  | 
CN1Cc2cc(OCCN3CCC4(CC3)C(=O)Nc3ccc(Cl)cc34)ccc2C1=O [Compound 146, 5-chloro-1′-{2-[(2-methyl-1-oxo-2,3-dihydro-1H-isoindol-5-yl)oxy]ethyl}-1,2-dihydrospiro[indole-3,4′-piperidin]-2-one] | 221 nM | 346 nM | 427 nM | 119 nM |  |  |  | 
CS(=O)(=O)C1(c2ccc(OCCN3CCC4(CC3)C(=O)Nc3ccc(C#N)cc34)cc2)CC1 [Compound 101, 1′-{2-[4-(1-methanesulfonylcyclopropyl)phenoxy]ethyl}-2-oxo-1,2-dihydrospiro[indole-3,4′-piperidine]-5-carbonitrile] | 248 nM | 195 nM | 200 nM | 69.4 nM |  |  |  | 
O=C1NCC2c3ccc(OCCN4CCC5(CC4)C(=O)Nc4ccc(Cl)cc45)cc3CCN12 (single isomer, unassigned) [Compound 116, (S) or (R)-5-chloro-1′-[2-({3-oxo-1H,2H,3H,5H,6H,10bH-imidazo[4,3-a]isoquinolin-8-yl}oxy)ethyl]-1,2-dihydrospiro[indole-3,4′-piperidin]-2-one] | 234 nM |  |  | 69.2 nM |  | 149 nM | 209 nM | 
CN=S(C)(=O)c1ccc(OCCN2CCC3(CC2)C(=O)Nc2ccc(Cl)cc23)cc1 (stereo not shown) [Compound 147, 5-chloro-1′-(2-{4-[methyl(methylimino)oxo-λ^6-sulfanyl]phenoxy}ethyl)-1,2-dihydrospiro[indole-3,4′-piperidin]-2-one] | 183 nM | 155 nM | 231 nM | 65.4 nM |  |  |  | 
CC1(S(=O)(=O)c2ccc(OCCN3CCC4(CC3)C(=O)Nc3ccc(Cl)cc34)cn2)COC1 [Compound 158, 5-chloro-1′-[2-({6-[(3-methyloxetan-3-yl)sulfonyl]pyridin-3-yl}oxy)ethyl]-1,2-dihydrospiro[indole-3,4′-piperidin]-2-one] | 252 nM | 94.2 nM | 142 nM | 45.9 nM |  |  |  | 
CS(=O)(=O)C1(c2ccc(OCCN3CCC4(CC3)C(=O)N(CCO)c3ccc(Cl)cc34)cc2)COC1 [Compound 160, 5-chloro-1-(2-hydroxyethyl)-1′-{2-[4-(3-methanesulfonyloxetan-3-yl)phenoxy]ethyl}-1,2-dihydrospiro[indole-3,4′-piperidin]-2-one] | 244 nM | 109 nM | 156 nM | 42.3 nM |  |  |  | 
CN=S(C)(=O)c1ccc(OCCN2CCC3(CC2)C(=O)Nc2ccc(Cl)cc23)cc1 (single isomer, unassigned) [Compound 149, (R) or (S)-5-chloro-1′-(2-{4-[methyl(methylimino)oxo-λ^6-sulfanyl]phenoxy}ethyl)-1,2-dihydrospiro[indole-3,4′-piperidin]-2-one] |  |  |  |  | 246 nM | 117 nM | 174 nM | 51.8 nM
Cn1c(=O)oc2cc(OCCN3CCC4(CC3)C(=O)Nc3ccc(Cl)cc34)ccc21 [Compound 131, 5-chloro-1′-{2-[(3-methyl-2-oxo-2,3-dihydro-1,3-benzoxazol-6-yl)oxy]ethyl}-1,2-dihydrospiro[indole-3,4′-piperidin]-2-one] | 186 nM | 132 nM | 176 nM | 47.8 nM |  |  |  | 
CN=S(C)(=O)c1ccc(OCCN2CCC3(CC2)C(=O)Nc2ccc(C#N)cc23)cc1 (single isomer, unassigned) [Compound 152, (R) or (S)-1′-(2-{4-[methyl(methylimino)oxo-λ^6-sulfanyl]phenoxy}ethyl)-2-oxo-1,2-dihydrospiro[indole-3,4′-piperidine]-5-carbonitrile] |  |  |  |  | > 4170 nM | 1050 nM | 1530 nM | 416 nM
